US7582645B2, “Pyrimidine derivatives for treatment of hyperproliferative disorders” (Bayer Pharmaceuticals Corporation, priority 2003, dated 2009)

Each compound was assayed on HCT116 cells (assay: HCT116 cytotoxic activity assay (Alamar Blue, 72 h)). Settings: Homo sapiens, HCT-116, 72 h compound exposure, greater than 500 nM but less than or equal to 2 μM.
Type: cell-based
Protocol: Representative compounds of this invention were tested for cytotoxicity using the above-described assay procedure with the following results: […]
Work on CN(C)c1ccc(-c2cc(Nc3ccc(Oc4ccnc(C#N)c4)cc3)nc(N)n2)cc1 [Example 232, 4-[4-({2-amino-6-[4-(dimethylamino)phenyl]pyrimidin-4-yl}amino)phenoxy]pyridine-2-carbonitrile] yielded an IC50 of 500 to 2000 nM. With N#CCc1ccc(-c2cc(Nc3ccc(Oc4ccnc(C#N)c4)cc3)nc(N)n2)cc1 [Example 235, 4-[4-({2-amino-6-(4-(cyanomethyl)phenyl]pyrimidin-4-yl}amino)phenoxy]pyridine-2-carbonitrile] the IC50 was 500 to 2000 nM. Work on N#Cc1cc(Oc2ccc(Nc3cc(-c4cccs4)nc(N)n3)cc2)ccn1 [Example 239, 4-(4-{[2-amino-6-(2-thienyl)pyrimidin-4-yl]amino}phenoxy) pyridine-2-carbonitrile] yielded an IC50 of 500 to 2000 nM. Compound N#Cc1cc(Oc2ccc(Nc3cc(-c4ccc(Cl)cc4)nc(N)n3)cc2)ccn1 [Example 242, 4-(4-{[2-amino-6-(4-chlorophenyl)pyrimidin-4-yl]amino}phenoxy) pyridine-2-carbonitrile] has an IC50 of 500 to 2000 nM. With N#Cc1cc(Oc2ccc(Nc3cc(-c4ccccc4N)nc(N)n3)cc2)ccn1 [Example 243, 4-(4-{[2-amino-6-(2-aminophenyl)pyrimidin-4-yl]amino}phenoxy) pyridine-2-carbonitrile] the IC50 was 500 to 2000 nM. In the case of COc1ccc(C(C)C)cc1-c1cc(Nc2ccc(Oc3ccnc(C#N)c3)cc2)nc(N)n1 [Example 245, 4-(4-{[2-amino-6-(5-isopropyl-2-methoxyphenyl)pyrimidin-4-yl]amino}phenoxy)pyridine-2-carbonitrile], the IC50 is reported as 500 to 2000 nM. Compound N#Cc1cc(Oc2ccc(Nc3cc(-c4ccc(F)cc4F)nc(N)n3)cc2)ccn1 [Example 247, 4-(4-{[2-amino-6-(2,4-difluorophenyl)pyrimidin-4-yl]amino}phenoxy)pyridine-2-carbonitrile] has an IC50 of 500 to 2000 nM. N#Cc1cc(Oc2ccc(Nc3cc(-c4cccc(CO)c4)nc(N)n3)cc2)ccn1 [Example 248, 4-[4-({2-amino-6-[3-(hydroxymethyl)phenyl]pyrimidin-4-yl}amino)phenoxy]pyridine-2-carbonitrile] gave an IC50 of 500 to 2000 nM. Work on NC(=O)c1cc(Oc2ccc(Nc3cc(-c4cccc(F)c4)nc(N)n3)cc2)ccn1 [Example 256, 4-(4-{[2-amino-6-(3-fluorophenyl)pyrimidin-4-yl]amino}phenoxy) pyridine-2-carboxamide] yielded an IC50 of 500 to 2000 nM. For NC(=O)c1cc(Oc2ccc(Nc3cc(-c4ccc(Cl)cc4)nc(N)n3)cc2)ccn1 [Example 257, 4-(4-{[2-amino-6-(4-chlorophenyl)pyrimidin-4-yl]amino}phenoxy) pyridine-2-carboxamide], the IC50 was 500 to 2000 nM. Compound NC(=O)c1cc(Oc2ccc(Nc3cc(-c4cccc(C(F)(F)F)c4)nc(N)n3)cc2)ccn1 [Example 258, 4-[4-({2-amino-6-[3-(trifluoromethyl)phenyl]pyrimidin-4-yl}amino)phenoxy]pyridine-2-carboxamide] has an IC50 of 500 to 2000 nM.

Same assay, conditions: Homo sapiens, HCT-116, 72 h compound exposure, greater than 2 μM
In the case of N#Cc1cc(Oc2ccc(Nc3cc(-c4cccnc4)nc(N)n3)cc2)ccn1 [Example 236, 4-{4-[(2-amino-6-pyridin-3-ylpyrimidin-4-yl)amino]phenoxy} pyridine-2-carbonitrile], the IC50 is reported as > 2000 nM. In the case of COc1ncc(-c2cc(Nc3ccc(Oc4ccnc(C#N)c4)cc3)nc(N)n2)c(OC)n1 [Example 237, 4-{4-[(2-amino-2′,4′-dimethoxy-4,5′-bipyrimidin-6-yl)amino]phenoxy} pyridine-2-carbonitrile], the IC50 is reported as > 2000 nM. For N#Cc1cc(Oc2ccc(Nc3cc(-c4cccc(C(F)(F)F)c4)nc(N)n3)cc2)ccn1 [Example 244, 4-[4-({2-amino-6-[3-(trifluoromethyl)phenyl]pyrimidin-4-yl}amino)phenoxy]pyridine-2-carbonitrile], the IC50 was > 2000 nM. For N#Cc1cc(Oc2ccc(Nc3cc(-c4ccc(Cl)c(Cl)c4)nc(N)n3)cc2)ccn1 [Example 253, 4-(4-{[2-amino-6-(3,4-dichlorophenyl)pyrimidin-4-yl]amino}phenoxy)pyridine-2-carbonitrile], the IC50 was > 2000 nM. For NC(=O)c1cc(Oc2ccc(Nc3cc(-c4cccs4)nc(N)n3)cc2)ccn1 [Example 255, 4-(4-{[2-amino-6-(2-thienyl)pyrimidin-4-yl]amino}phenoxy) pyridine-2-carboxamide], the IC50 was > 2000 nM. With NC(=O)c1cc(Oc2ccc(Nc3cc(-c4ccc(-c5ccccc5)c(F)c4)nc(N)n3)cc2)ccn1 [Example 260, 4-(4-{[2-amino-6-(2-fluorobiphenyl-4-yl)pyrimidin-4-yl]amino}phenoxy) pyridine-2-carboxamide] the IC50 was > 2000 nM. With NC(=O)c1cc(Oc2ccc(Nc3cc(-c4cccc(CO)c4)nc(N)n3)cc2)ccn1 [Example 265, 4-[4-({2-amino-6-[3-(hydroxymethyl)phenyl]pyrimidin-4-yl}amino)phenoxy]pyridine-2-carboxamide] the IC50 was > 2000 nM.

Same assay, conditions: Homo sapiens, HCT-116, 72 h compound exposure, less than or equal to 500 nM
In the case of COc1ccc(OC)c(-c2cc(Nc3ccc(Oc4ccnc(C#N)c4)cc3)nc(N)n2)c1 [Example 233, 4-(4-{[2-amino-6-(2,5-dimethoxyphenyl)pyrimidin-4-yl]amino}phenoxy)pyridine-2-carbonitrile], the IC50 is reported as ≤ 500 nM. In the case of COc1cccc(-c2cc(Nc3ccc(Oc4ccnc(C#N)c4)cc3)nc(N)n2)c1 [Example 234, 4-(4-{[2-amino-6-(3-methoxyphenyl)pyrimidin-4-yl]amino}phenoxy) pyridine-2-carbonitrile], the IC50 is reported as ≤ 500 nM. N#Cc1cc(Oc2ccc(Nc3cc(-c4cccc(N)c4)nc(N)n3)cc2)ccn1 [Example 238, 4-(4-{[2-amino-6-(3-aminophenyl)pyrimidin-4-yl]amino}phenoxy) pyridine-2-carbonitrile] was tested, and the IC50 was ≤ 500 nM. With N#Cc1cc(Oc2ccc(Nc3cc(-c4cccc(F)c4)nc(N)n3)cc2)ccn1 [Example 240, 4-(4-{[2-amino-6-(3-fluorophenyl)pyrimidin-4-yl]amino}phenoxy) pyridine-2-carbonitrile] the IC50 was ≤ 500 nM. In the case of N#Cc1cc(Oc2ccc(Nc3cc(-c4ccccc4F)nc(N)n3)cc2)ccn1 [Example 241, 4-(4-{[2-amino-6-(2-fluorophenyl)pyrimidin-4-yl]amino}phenoxy) pyridine-2-carbonitrile], the IC50 is reported as ≤ 500 nM. For Cc1ccccc1-c1cc(Nc2ccc(Oc3ccnc(C#N)c3)cc2)nc(N)n1 [Example 246, 4-(4-{[2-amino-6-(2-methylphenyl)pyrimidin-4-yl]amino}phenoxy) pyridine-2-carbonitrile], the IC50 was ≤ 500 nM. With Cc1ccc(-c2cc(Nc3ccc(Oc4ccnc(C#N)c4)cc3)nc(N)n2)cc1 [Example 249, 4-(4-{[2-amino-6-(4-methylphenyl)pyrimidin-4-yl]amino}phenoxy) pyridine-2-carbonitrile] the IC50 was ≤ 500 nM. For Cc1cccc(-c2cc(Nc3ccc(Oc4ccnc(C#N)c4)cc3)nc(N)n2)c1 [Example 250, 4-(4-{[2-amino-6-(3-methylphenyl)pyrimidin-4-yl]amino}phenoxy) pyridine-2-carbonitrile], the IC50 was ≤ 500 nM. For N#Cc1cc(Oc2ccc(Nc3cc(-c4ccsc4)nc(N)n3)cc2)ccn1 [Example 251, 4-(4-{[2-amino-6-(3-thienyl)pyrimidin-4-yl]amino}phenoxy) pyridine-2-carbonitrile], the IC50 was ≤ 500 nM. With Cc1ccc(-c2cc(Nc3ccc(Oc4ccnc(C#N)c4)cc3)nc(N)n2)cc1N [Example 252, 4-(4-{[2-amino-6-(3-amino-4-methylphenyl)pyrimidin-4-yl]amino}phenoxy)pyridine-2-carbonitrile] the IC50 was ≤ 500 nM. In the case of NC(=O)c1cc(Oc2ccc(Nc3cc(-c4cccc(N)c4)nc(N)n3)cc2)ccn1 [Example 254, 4-(4-{[2-amino-6-(3-aminophenyl)pyrimidin-4-yl]amino}phenoxy) pyridine-2-carboxamide], the IC50 is reported as ≤ 500 nM. For CCCCc1ccc(-c2cc(Nc3ccc(Oc4ccnc(C(N)=O)c4)cc3)nc(N)n2)cc1 [Example 259, 4-(4-{[2-amino-6-(4-butylphenyl)pyrimidin-4-yl]amino}phenoxy) pyridine-2-carboxamide], the IC50 was ≤ 500 nM. CCc1cccc(-c2cc(Nc3ccc(Oc4ccnc(C(N)=O)c4)cc3)nc(N)n2)c1 [Example 261, 4-(4-{[2-amino-6-(3-ethylphenyl)pyrimidin-4-yl]amino}phenoxy) pyridine-2-carboxamide] was tested, and the IC50 was ≤ 500 nM. For COc1ccc(C(C)C)cc1-c1cc(Nc2ccc(Oc3ccnc(C(N)=O)c3)cc2)nc(N)n1 [Example 262, 4-(4-{[2-amino-6-(5-isopropyl-2-methoxyphenyl)pyrimidin-4-yl]amino}phenoxy)pyridine-2-carboxamide], the IC50 was ≤ 500 nM. Cc1ccccc1-c1cc(Nc2ccc(Oc3ccnc(C(N)=O)c3)cc2)nc(N)n1 [Example 263, 4-(4-{[2-amino-6-(2-methylphenyl)pyrimidin-4-yl]amino}phenoxy) pyridine-2-carboxamide] was tested, and the IC50 was ≤ 500 nM. With NC(=O)c1cc(Oc2ccc(Nc3cc(-c4ccc(F)cc4F)nc(N)n3)cc2)ccn1 [Example 264, 4-(4-{[2-amino-6-(2,4-difluorophenyl)pyrimidin-4-yl]amino}phenoxy)pyridine-2-carboxamide] the IC50 was ≤ 500 nM. For CC(C)c1ccc(-c2cc(Nc3ccc(Oc4ccnc(C(N)=O)c4)cc3)nc(N)n2)cc1 [Example 266, 4-(4-{[2-amino-6-(4-isopropylphenyl)pyrimidin-4-yl]amino}phenoxy) pyridine-2-carboxamide], the IC50 was ≤ 500 nM. For Cc1ccc(-c2cc(Nc3ccc(Oc4ccnc(C(N)=O)c4)cc3)nc(N)n2)cc1 [Example 267, 4-(4-{[2-amino-6-(4-methylphenyl)pyrimidin-4-yl]amino}phenoxy) pyridine-2-carboxamide], the IC50 was ≤ 500 nM. With Cc1cccc(-c2cc(Nc3ccc(Oc4ccnc(C(N)=O)c4)cc3)nc(N)n2)c1 [Example 268, 4-(4-{[2-amino-6-(3-methylphenyl)pyrimidin-4-yl]amino}phenoxy) pyridine-2-carboxamide] the IC50 was ≤ 500 nM. With NC(=O)c1cc(Oc2ccc(Nc3cc(-c4ccsc4)nc(N)n3)cc2)ccn1 [Example 269, 4-(4-{[2-amino-6-(3-thienyl)pyrimidin-4-yl]amino}phenoxy) pyridine-2-carboxamide] the IC50 was ≤ 500 nM.
